Data reported in patent US20230050965A1, “SSTR5 ANTAGONISTS” (Kallyope, Inc., priority 2019, published 2023).

How the values were obtained:
[1] = target: T1, human SSTR5 (Homo sapiens, UniProt P35346); assay: Inositol phosphate (IP1) accumulation assay, antagonist mode; type: cell-based; conditions: CHO-K1 cells stably co-expressing human SSTR5 with Gqi5; pre-incubation with antagonist, then SST28 agonist; IP1 HTRF readout
T1 construct: expressed in transfected cells
Text: Inositol Phosphate Accumulation Assay
CHO-K1 cells stably co-expressing human SSTR5 with Gqi5 were developed using Jump-In technology from Thermo-Fisher. Gqi5 is the mouse G alpha q protein, that was modified to interact with Gi-coupled GPCRs as described previously (Coward, P.; Chan, S. D.; Wada, H. G.; Humphries, G. M.; Conklin, B. R. Chimeric G proteins Allow a High-Throughput Signaling Assay of Gi-Coupled Receptors. Anal Biochem. 1999, 270(2), 242-248).
Co-expression of Gqi5 with SSTR5 allowed monitoring of SSTR5 activity by following IP1 accumulation. The assay was performed in a 384-well plate format using the IP1 assay kit from Cis-Bio in an antagonist mode, i.e., pre-incubation with antagonist following by receptor activation by agonist at a concentration generating 90% of full activation. Frozen cells expressing human SSTR5 were thawed, washed, and then plated in DMEM supplemented with 10% FBS and non-essential amino acids. 40 μL of 2.5×10^5 cells/mL were plated on a Poly D-Lysine coated 384-well white plate. The cells were then incubated for 16 hr. at 37° C./5% CO2. After 16 hour the medium was removed, and 10 μL of stimulation buffer was added to the cells. Test compounds were dissolved in DMSO at concentrations 2000-fold that of the final assay concentrations. 7.5 nL compound solutions were transferred to the cell plates using a Labcyte Echo® acoustic liquid handler. The plates were then incubated for 15 minutes at 37° C./5% CO2. After the first incubation, 5 μL of 30 nM SST28 were added to the cells, and the cells were incubated for 90 minutes at 37° C./5% CO2. 5 μL of detection buffer (prepared as described in the IP-1 kit) was added to each well, and the plates were incubated at RT for 1 hour.
TR-FRET was measured using a ClarioSTAR plate reader, calculating the ratio between emissions at 665 nm and 620 nm (HTRF ratio). The HTRF ratio for positive (Max) and negative (Min) controls were used to normalize HTRF data and generate values for % inhibition. IC50 and maximal inhibition values were determined using a standard 4-parameter fit.

[2] = Oral bioavailability after oral dosing in rat; conditions: in vivo, Sprague Dawley rats, IV 1 mg/kg, PO 5 mg/kg, read-out: F % (oral bioavailability)
Protocol: Example A-2: Oral Bioavailability of the Compounds after Oral Dosing in Rat
Oral bioavailability of the compounds was determined in Sprague Dawley rats. The table below summarizes the results. Each compound was dosed intravenously (IV) at 1 mg/kg and orally (PO) 5 mg/kg using the respective vehicles listed below. The compounds display low (<10%) oral bioavailability (F %).

T1 sequence (P35346 whole entry): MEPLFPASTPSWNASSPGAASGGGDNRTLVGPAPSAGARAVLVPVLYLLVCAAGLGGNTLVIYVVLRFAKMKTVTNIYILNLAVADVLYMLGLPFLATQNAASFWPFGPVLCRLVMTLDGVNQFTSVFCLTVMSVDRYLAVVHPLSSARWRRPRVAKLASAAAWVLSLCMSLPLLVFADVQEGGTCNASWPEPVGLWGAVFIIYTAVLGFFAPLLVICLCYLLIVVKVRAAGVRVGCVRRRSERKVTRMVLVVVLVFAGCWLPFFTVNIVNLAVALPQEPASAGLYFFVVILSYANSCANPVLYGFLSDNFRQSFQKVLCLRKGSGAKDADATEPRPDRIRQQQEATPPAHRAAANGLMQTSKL

Row | IC50 [1] [nM] | bioavailability [2] [%] | Structure (SMILES)
1 | ≤ 100 | 0.9 | CCOc1cc(-c2ccc(F)cc2)c(C2CC2)cc1CN1CCC2(CC1)CN(c1ccc(P(=O)(O)O)cc1)C(=O)O2 [Compound 1, (4-(8-((2-cyclopropyl-5-ethoxy-4′-fluoro-[1,1′-biphenyl]-4-yl)methyl)-2-oxo-1-oxa-3,8-diazaspiro[4.5]decan-3-yl)phenyl)phosphonic acid]
2 | ≤ 100 | 8.7 | CCOc1cc(-c2ccc(F)cc2)c(C2CC2)cc1CN1CCC2(CC1)CN(c1ccc(P(C)(=O)O)cc1)C(=O)O2 [Compound 2, (4-(8-((2-cyclopropyl-5-ethoxy-4′-fluoro-[1,1′-biphenyl]-4-yl)methyl)-2-oxo-1-oxa-3,8-diazaspiro[4.5]decan-3-yl)phenyl)(methyl)phosphinic acid]
3 | ≤ 100 | 0.2 | CCOc1cc(-c2ccc(F)cn2)c(C2CC2)cc1CN1CCC2(CC1)CN(c1ccc(P(=O)(O)O)cc1)C(=O)O2 [Compound 9, (4-(8-(5-cyclopropyl-2-ethoxy-4-(5-fluoropyridin-2-yl)benzyl)-2-oxo-1-oxa-3,8-diazaspiro[4.5]decan-3-yl)phenyl)phosphonic acid]
4 | ≤ 100 | 1.9 | CCOc1cc(-c2ccc(F)cc2)c(C2CC2)cc1CN1CCC2(CC1)CN(c1ccc([PH](=O)O)cc1)C(=O)O2 [Compound 3, (4-(8-((2-cyclopropyl-5-ethoxy-4′-fluoro-[1,1′-biphenyl]-4-yl)methyl)-2-oxo-1-oxa-3,8-diazaspiro[4.5]decan-3-yl)phenyl)phosphinic acid]
5 | ≤ 100 |  | CCOc1cc(-c2ccc(F)cc2)c(C2CC2)cc1CN1CCC2(CC1)CC(=O)N(c1ccc(P(C)(=O)O)cc1)C2 [Compound 7, (4-(8-((2-cyclopropyl-5-ethoxy-4′-fluoro-[1,1′-biphenyl]-4-yl)methyl)-3-oxo-2,8-diazaspiro[4.5]decan-2-yl)phenyl)(methyl)phosphinic acid]
6 | ≤ 100 |  | CCOc1cc(-c2ccc(F)cc2)c(C2CCC2)cc1CN1CCC2(CC1)CN(c1ccc(P(=O)(O)O)cc1)C(=O)O2 [Compound 36, (4-(8-((2-cyclobutyl-5-ethoxy-4'-fluoro-[1,1'-biphenyl]-4-yl)methyl)-2-oxo-1-oxa-3,8-diazaspiro[4.5]decan-3-yl)phenyl)phosphonic acid]
7 | ≤ 100 |  | CCOc1cc(-c2ccc(F)cc2)c(C2CC2)cc1CN1CCC2(CC1)CC(=O)N(c1ccc(P(=O)(O)O)cc1)C2 [Compound 29, (4-(8-((2-cyclopropyl-5-ethoxy-4′-fluoro-[1,1′-biphenyl]-4-yl)methyl)-3-oxo-2,8-diazaspiro[4.5]decan-2-yl)phenyl)phosphonic acid]
